Data published in paper PMC4951311 (Oncotarget, 2016).
“Also recorded” adds a separate entry of the source. Where a name gives a salt, the structure may show the parent alone.

Tests used:
Assay type in all cases: in vivo, human
[1] = Steady-state plasma pharmacokinetics of enzastaurin and metabolites in native Chinese cancer patients (LC-MS/MS, noncompartmental)
Experimental: Then, the study drug ceased for three days (days 15 to 17) and resumed on day 18, after the last PK sample was obtained. During the study, dosing occurred at approximately the same time of day for each individual patient.
Nominal collection times were day 14 predose and 1, 2, 4, 6, 8, 10, 24, 48, 72, and 96 h postdose. […] The actual sampling time was accurately recorded for analysis.
Pharmacokinetic parameters were calculated using noncompartmental methods of analysis using WinNonlin (Pharsight Corp., Cary, NC, USA). […] Total plasma analyte AUCτ, ss and Cav ss were calculated by summing the respective AUCτ, ss or Cav, ss estimates for each of the 4 individual analytes. Total plasma analyte Cmax was reported as the highest sum of individual analyte concentrations at any given sampling time during a concentration-time profile, not the sum of the Cmax of each analyte. […] The AUC was calculated by a combination of linear and logarithmic trapezoidal methods. The linear trapezoidal method was employed up to tmax, and the log trapezoidal method was then used for data after tmax. PK measurements were calculated based on the actual collection times. Patients with insufficient data were excluded from the analysis.

[2] = Safety: adverse events graded by CTCAE v3.0 in native Chinese cancer patients
Experimental: Eligibility assessments, which consisted of a complete medical history, physical examination, ECOG performance status, vital sign measurements, concomitant drugs, ECG, laboratory tests, one or more relevant radiologic test(s) for tumor measurement (computed tomography scan, magnetic resonance imaging, X-ray, or bone scan) and tumor measurement of palpable or visible lesions, were conducted within 28 days before the lead-in day. Lead-in day (within 7 days before treatment initiation) assessments included physical examination, ECOG performance status, vital sign measurements, concomitant drugs, ECG (at 0 and 4 h) and laboratory tests.
ECGs were performed 4 h after treatment on days 1 and 2. Patients received the same assessments on day 14 as on the lead-in day, except that ECGs were performed predose (0 h) and 4 h postdose. Blood samples for PK were collected from days 14 to 18. After retreatment for 2 to 4 weeks from day 18, patients were re-evaluated to determine whether they should continue in the safety extension phase or washout prior to withdrawal from the study.
(§1) All patients who entered the safety extension phase were evaluated with a physical examination, vital signs, laboratory tests, concomitant drugs, ECG at a 4-week follow-up visit, tumor measurements and imaging studies at 4- to 8-week intervals.
(§2) All observed AEs were graded using the CTCAE, version 3.0 (NCI 2003). Imaging studies of involved disease sites were repeated every 4 to 8 weeks in patients who entered the safety extension phase. All lesion assessments, whether by physical examination or radiologic methods, were repeated by the same methods at least 4 weeks following the initial observation of an objective response for response confirmation. Responses were recorded based on Response Evaluation Criteria in Solid Tumors, version 1.0 (RECIST 1.0), and Revised Response Criteria for Malignant Lymphoma.

[3] = tested on: refractory solid tumors and lymphoma; experiment: Anti-tumor response (RECIST 1.0 / Revised Response Criteria for Malignant Lymphoma), safety extension phase
Experimental: as §1, §2

[4] = of 9 non-Hodgkin lymphoma patients
[5] = of 10 evaluated lymphoma patients

## Cn1cc(C2=C(c3cn(C4CCN(Cc5ccccn5)CC4)c4ccccc34)C(=O)NC2=O)c2ccccc21 [enzastaurin, Enzastaurin monohydrochloride]
[1]; 500 mg orally once daily, steady state, geometric mean (% CV), N = 23
  Cav, ss: 1,210 nmol/L
[1]; 500 mg orally once daily, steady state, geometric mean (% CV), N = 23, listed as Enzastaurin
  Cav, ss: 1210 (128) nmol/L
[1]; human, plasma, po, 500 mg
  Cmax: 2370 nM
[1]; human, plasma, po, 500 mg, 500 mg orally once daily, steady state, median and range, N = 23
  Tmax: ≤ 4 h
[1]; human, plasma, po, 500 mg orally once daily, steady state, one dosing interval, geometric mean (% CV), N = 23
  AUC: 29.1 µM·h
[1]; human, plasma, po, 500 mg orally once daily, washout days 15-17, geometric mean and range, N = 21
  half-life: 14 h
[2]; 500 mg daily, Chinese patients
  Tolerability: well tolerated with minimal toxicity
[2]; 500 mg once daily
  Deaths or serious adverse events during the study: No deaths or other serious adverse events; also recorded: Neither drug-related deaths nor serious AEs were reported
  Discontinuation because of an AE: No patients discontinued because of an AE; also recorded: No patient withdrew from the study because of toxicity
[2]; PK phase
  Patients reporting at least 1 AE (percent): 80%
  Patients reporting at least 1 AE, drug related: 14
[2]; PK phase, 25 patients treated
  Patients reporting at least 1 AE: 20 patients
[2]; maximum grade 0, n = 25
  Number of patients with drug-related abdominal pain, grade 0: 22
  Number of patients with drug-related anemia, grade 0: 24
  Number of patients with drug-related chromaturia, grade 0: 22
  Number of patients with drug-related diarrhea, grade 0: 24
  Number of patients with drug-related fatigue, grade 0: 24
  Number of patients with drug-related increased ALT, grade 0: 22
  Number of patients with drug-related increased AST, grade 0: 23
  Number of patients with drug-related insomnia, grade 0: 24
  Number of patients with drug-related leukopenia, grade 0: 23
  Number of patients with drug-related lymphocytopenia, grade 0: 23
  Number of patients with drug-related nausea, grade 0: 24
  Number of patients with drug-related neutropenia, grade 0: 24
  Number of patients with drug-related thrombocytopenia, grade 0: 24
[2]; maximum grade 0, n = 25, 500 mg daily
  Number of patients with drug-related QT prolongation, grade 0: 21
[2]; maximum grade 1, n = 25
  Number of patients with drug-related abdominal pain, grade 1: 3
  Number of patients with drug-related anemia, grade 1: 1
  Number of patients with drug-related chromaturia, grade 1: 3
  Number of patients with drug-related fatigue, grade 1: 1
  Number of patients with drug-related increased ALT, grade 1: 3
  Number of patients with drug-related increased AST, grade 1: 2
  Number of patients with drug-related leukopenia, grade 1: 1
  Number of patients with drug-related lymphocytopenia, grade 1: 1
  Number of patients with drug-related nausea, grade 1: 1
  Number of patients with drug-related neutropenia, grade 1: 1
  Number of patients with drug-related thrombocytopenia, grade 1: 1
[2]; maximum grade 1, n = 25, 500 mg daily
  Number of patients with drug-related QT prolongation, grade 1: 1
[2]; maximum grade 2, n = 25
  Number of patients with drug-related diarrhea, grade 2: 1
  Number of patients with drug-related insomnia, grade 2: 1
  Number of patients with drug-related leukopenia, grade 2: 1
  Number of patients with drug-related lymphocytopenia, grade 2: 1
[2]; maximum grade 2, n = 25, 500 mg daily
  Number of patients with drug-related QT prolongation, grade 2: 2
[2]; maximum grade 3, n = 25, 500 mg daily
  Number of patients with drug-related QT prolongation, grade 3: 1
[2]; regardless of causality, CTCAE
  Patients who experienced grade 3 AEs: 7 patients
[2]; regardless of causality, neutropenia considered caused by leukemia
  Patients who experienced a grade 4 AE: 1
[2]; safety extension phase
  Patients reporting at least 1 AE (percent): 53.3%
  Patients reporting at least 1 AE, drug related: 5
[2]; safety extension phase, 15 patients
  Patients reporting at least 1 AE: 8 patients
[3]; [4]
  NHL patients who achieved a partial response: 1
  NHL patients who achieved stable disease: 4
  NHL patients with complete response on enzastaurin maintenance therapy after salvage chemotherapy: 1
[3]; [5]
  Lymphoma patients with progressive disease: three
  Lymphoma patients with stable disease: five
[3]; one Hodgkin lymphoma patient
  Duration of stable disease: 22.1 months
[3]; one follicular lymphoma patient
  Duration of stable disease: 25.2 months
[3]; one patient with relapsed DLBCL
  Duration of partial response: 8.1 months
[3]; one patient with relapsed DLBCL, still on drug at last follow-up
  Disease-free time on enzastaurin after complete response following salvage chemotherapy: 30 months
[3]; overall judgement
  Activity in advanced/metastatic solid tumors: poor activity
  Efficacy against lymphoma: limited efficacy
[3]; relapsed DLBCL patient, PET-CT
  Time of treatment at which partial response was observed: 1.8 months
